Measurements: patent publication US20080021015A1, “Use as medicine of a compound restoring active principles in vivo” (DOSPHARMA, priority 2000, published 2008)
Counter-ions that a name gives are not always drawn.

Columns and labels:
[1] = rat, in vivo, po, 50 mg/kg
[2] = system: rats treated with streptozotocin; test: Antidiabetic activity in rats made diabetic with streptozotocin; format: in vivo, rat; conditions: streptozotocin (50 mg/kg, IP) rats; for hyperglycaemia after treatment: after administration of 30 mg/kg; for hyperglycaemia before treatment: starting value, 30 mg/kg group
Method: (§1) The antidiabetic activity was studied, from the pharmacological point of view, on two models of rats made diabetic.
The first model consisted in treating the rats with streptozotocin (50 mg/kg, IP), this being a compound which induces an increase in glycaemia, which increases from 5.5 mM to 12-14 mM in 21 days.

primary hepatocytes = test: In vitro toxicity assay on primary hepatocytes
Method: A method for culturing primary hepatocytes over a period of 96 hours is used (see Biochemical Pharmacology, vol. 50, 1995, pp. 775-780). The hepatocytes are isolated in situ by collagen profusion. They are then placed in a Williams medium supplemented with foetal calf serum, with cortisol and with glutamine, in a proportion of 1 million cells per well. Increasing and toxic concentrations of A and C, and of A′ ? […] C′ are then added to each well. Samples are taken up after 6 h, 12 h, 24 h, 48 h and 96 h and the viability of the cells is determined with a methylene blue test, by albumin expression, by hepatocyte apoptosis and by measuring cytochrome P450 activity.

[3] = system: rats given fructose at 10% in the drinking water; conditions: fructose 10% in drinking water, equivalent dose of metformin base
Method: as §1
The second study is carried out with the administration of fructose at 10% in the drinking water of the rats.

concentration peak [1]	time of concentration peak [1]	Compound	hyperglycaemia after treatment [2]	hyperglycaemia before treatment [2]	toxic dose (primary hepatocytes)	effects on the microcirculation (hamster cheek pouch)	antidiabetic activity compared with metformin alone [3]
3900 ng/mL	≤ 90 min	CN(C)C(=N)N=C(N)N [metformin hydrochloride]	–	–	–	–	–
–	–	CN(C)C(=N)NC(=N)N [metformin, N,N-dimethylimidodicarbonimidic diamide]	9.85 mM	12.11 mM	10^−2 M	–	–
–	–	arginine hemisuccinimide-metformin hemisuccinate	7.56 mM	12.66 mM	–	reproduces at least the effects of the two active principles on the microcirculation	significantly more active than the metformin alone
